Test results: US11479533B2, “Inhibitors of Rho associated coiled-coil containing protein kinase” (KADMON CORPORATION, LLC, priority 2017, dated 2022)

System: bleomycin induced lung fibrosis
Experiment: Bleomycin induced lung fibrosis in mice (prophylactic administration)
Assay type: in vivo, mouse
Conditions: oral once daily, 21-day treatment; ≥10 mg/kg
Procedure: Bleomycin induced lung fibrosis in mice (Phrophylactic administration): Male C57B/L6 mice were ear tagged and weighed prior to the start of the study. Treatment group animals were treated with the compound on day −1 pre-bleomycin and all subsequent days post-bleomycin administration. On day 0, animals in disease groups received 1.5 U/kg dose of bleomycin via oropharyngeal route. The non-bleomycin control group received sterile saline. Animals were closely monitored daily till the end of the study. On day 21 following bleomycin administration, all animals were euthanized and blood, lung, and bronchoalveolar lavage (BAL) fluid were collected. Blood samples were used for plasma preparation; total leukocytes were counted in BAL fluid; and lungs were fixed in 10% neutral buffered formalin for histopathological analysis. Based on the strong anti-fibrotic cellular activity of ROCK inhibitors of this invention, the ability of such inhibitors to attenuate fibrosis in the in vivo setting was assessed in several mouse models of fibrotic diseases including the bleomycin induced pulmonary fibrosis. […] The improvement in the overall lung fibrosis, α-smooth muscle actin (αSMA) percentage positive area and total leukocytes count in bronchoalveolar lavage fluid was quantitated by applying the Ashcoft score criteria to the histopathology images, IHC quantitation and flowcytometry respectively.

Compound: CNC(C(=O)Nc1ccc(-c2cn[nH]c2)cc1)c1cccc(OC)c1 (stereo not shown) [Example 2, N-(4-(1H-pyrazol-4-yl)phenyl)-2-(3-methoxyphenyl)-2-(methylamino)acetamide]
- Ashcroft fibrotic indices, αSMA percentage positive area and total leukocytes count in bronchoalveolar lavage fluid: positive activity
